In US5242929A, “Derivatives of substituted imidazol-2-one and process for their preparation” (Farmitalia Carlo Erba S.r.l., priority 1991, dated 1993):
Read-outs that look alike come from different tables or passages of the source.

Assays:
[1] = biological target: T1, 5HT3 receptor (Rattus norvegicus, UniProt P35563); assay: inhibition of the binding of ^3 H-GR65630 in rat entorhinal cortex; set-up: labeled in the entorhinal cortex of the rat brain; from tissue; host or cells: rat entorhinal cortex; conditions: for binding model / interaction with 5-HT3 receptors: entorhinal cortex of the rat brain, ^3 H-GR 65630
T1 sequence (P35563 24-483): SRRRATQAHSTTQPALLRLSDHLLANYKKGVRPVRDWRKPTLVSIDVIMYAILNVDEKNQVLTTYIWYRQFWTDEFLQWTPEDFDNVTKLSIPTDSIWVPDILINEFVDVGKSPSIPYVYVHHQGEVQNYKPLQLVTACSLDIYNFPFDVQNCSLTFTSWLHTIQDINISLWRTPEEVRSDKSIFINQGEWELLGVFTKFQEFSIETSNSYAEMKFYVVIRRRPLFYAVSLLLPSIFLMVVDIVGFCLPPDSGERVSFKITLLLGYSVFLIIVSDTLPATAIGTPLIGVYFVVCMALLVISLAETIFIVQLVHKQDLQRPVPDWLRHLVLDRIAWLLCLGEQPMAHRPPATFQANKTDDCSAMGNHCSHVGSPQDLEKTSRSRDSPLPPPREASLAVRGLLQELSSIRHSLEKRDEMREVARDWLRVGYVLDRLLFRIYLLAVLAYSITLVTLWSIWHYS

[2] = biological target: T1, 5HT3 receptor; assay: von Bezold-Jarisch chemoreflex evoked by 5-HT in the anesthetised rat; assay type: in vivo; set-up: chemoreflex evoked by 5-HT in the anesthetised rat; from tissue; host or cells: whole living anesthetised rat, endogenous receptor (vagal afferents by own knowledge); conditions: 5-HT 20 μg/kg i.v., anesthetized rat; for % inhibition of the Bezold-Jarisch reflex: mean ± S.E.M. from 6 animals, *p < 0.01 vs controls (Dunnett's test)
Protocol: Pharmacol. 326, 36-44 (1984).
The following Table I reports the in vivo 5HT3 antagonist activity data obtained in this test for the representative compound of the invention 1-(1-azabicyclo[2.2.2]oct-3 yl)-3-(3-chlorophenyl)-imidazolidin-2-one (internal code FCE 26778).
Inhibition of the Bezold-Jarisch reflex elicited by 5-HT
(20 μg/kg i.v.) by i.v. FCE 26778 in the anesthetized rat.
Values are mean ± S.E.M. from 6 animals

Compound	Ki [1] [nM]	binding model / interaction with 5-HT3 receptors [1]	Ki ([1]; [^3 H]GR 65630 labelled 5HT3 sites, rat entorhinal cortex, two site fitting, low affinity, read-out: Ki low) [nM]	% inhibition of the Bezold-Jarisch reflex ([2]; 30 μg/kg i.v.) [%]	% inhibition of the Bezold-Jarisch reflex ([2]; 100 μg/kg i.v.) [%]	% inhibition of the Bezold-Jarisch reflex ([2]; 300 μg/kg i.v.) [%]	ED50 ([2]; iv, limits 54.50-98.39) [mg/kg]
CN1C2CCC1CC(OC(=O)c1cc(Cl)cc(Cl)c1)C2 (centres unmarked) [MDL 72222]	25.5	displaced ^3 H-GR 65630 according to one site non-linear fitting	–	–	–	–	–
O=C1N(c2cccc(Cl)c2)CCN1C1CN2CCC1CC2 (centres unmarked) [FCE 26778, 1-(1-azabicyclo[2.2.2]oct-3 yl)-3-(3-chlorophenyl)-imidazolidin-2-one]	4.42	interacted according to a two site non-linear fitting model	1100	26.66 ± 5.25	59.57 ± 5.87	81.33 ± 3.32	0.0749
CCN(CC)CCNC(=O)c1cc(Cl)c(N)cc1OC [Metoclopramide]	547	displaced ^3 H-GR 65630 according to one site non-linear fitting	–	–	–	–	–
